Assay results from paper PMC8750527 (Cancers, 2021).

What was measured:
[1] = tested on: HDF; assay: Cumulative population doubling (CPD), HDF; format: cell-based, human; details: transient treatment for 48 h, 5 µM
Description: (§1) Cumulative population doubling (CPD) was assessed as previously described. Briefly, depending on the cell line, a variable number of cells corresponding to about 30% confluency were seeded in triplicate in 60 mm diameter Petri dishes. […] The cells were harvested when the confluency reached about 90%, counted and plated again at a dilution of 1/20. CPD was calculated as previously described.

[2] = tested on: barrier formed by HUVEC; assay: In vitro endothelium permeability assay (FITC-Dextran), HUVEC; format: cell-based, human; details: 3-day treatment, nontoxic doses
Description: This assay was conducted as previously described. […] Permeability was measured by the passage of 40 kDa FITC-Dextran through the inserts. Fluorescence intensity measures were normalized to the DMSO control.

[3] = tested on: HD-MB03; assay: Cumulative population doubling (CPD), HD-MB03; format: cell-based, human; details: continuous treatment; axitinib 5 µM, etoposide 1 µM
Description: as §1

[4] = tested on: HD-MB03 intracranial tumors
Description: HD-MB03-Luc spheroids were stereotaxically implanted into the brains of 9-week-old Rj:NMRI-Foxn1 nude (nu/nu) female mice (Janvier Labs, Le Genest-Saint-Isle, France). Briefly, MB spheroids were generated with 2500 cells grown for 48 h in ultralow-adhesion spheroid 96-well plates (Corning, Corning, NY, USA) and three spheroids per mouse were implanted into the left cerebellar hemisphere (2 mm posterior, 1.5 mm left of the lambda point and 2.5 mm deep) using a Hamilton syringe fitted with a needle (Hamilton, Bonaduz, Switzerland) and following the procedure already described. […] Oral gavage with a vehicle solution was used as the control. Mouse survival was based on the presence of neuropathological symptoms including gait defects and a loss of weight over 10% as endpoints. A minimum of five mice per group was chosen to yield sufficient statistical power (p < 0.05, one-way ANOVA). These experiments were carried out in strict accordance with the recommendations in the Guide for the Care and Use of Laboratory Animals. Our experiments were approved by Direction de l’Action Sanitaire et Sociale of the Principality of Monaco and the ethics committee of Centre Scientifique de Monaco.
Tumor samples were recovered from the animals and embedded in the OCT compound according to the manufacturer’s protocol (Thermo Fisher Scientific Inc., Waltham, MA, USA). After that, 5 µm thin sections were prepared with a cryostat (Leica Microsystems, Wetzlar, Germany). Incubation was carried out with the following antibodies diluted at 1:1000 in TBS supplemented with 1% horse serum and 1% BSA for 20 min at room temperature: anti-Ki67 (cat. number ab16667, Abcam, Cambridge, UK), anti-CD31 (cat. number 550274, BD Biosciences, Frankton Lake, NJ, USA) or anti-αSMA (cat. number A2547, Merck Millipore, Burlington, MA, USA). The preparations were then washed with TBS–0.025% Triton, incubated with anti-rabbit Alexa488 and anti-mouse Alex-555-coupled secondary antibodies (Cell Signaling Technology, Danvers, MA, USA), washed with TBS–0.025% Triton, and the nuclei were counterstained with Hoechst33342 (Thermo Fisher Scientific, Waltham, MA, USA). Fluorescence images of the cells were taken with a DMI400 inverted microscope equipped with a 40× objective (Leica Microsystemes, Nanterre, France) and a Zyla 5.5 camera (Andor Technologies, Belfast, UK) powered by the Micromanager software. At least one cross-section of nonoverlapping images of each tumor was acquired. All the images were then quantified with the CellProfiler 3.0 software.

[5] = tested on: children presenting with refractory or recurrent tumors; details: phase I study ref 20; cited from earlier work
[6] = tested on: 20-day-old Wistar rats; assay: Juvenile rat toxicity experiment; format: in vivo; details: 50 mg/kg daily, oral gavage, four weeks; female and male
Text: (§2) The experiments were approved by Comité National Institutionnel d’Ethique pour l’Animal de Laboratoire (France). The rats were bled and the brains were recovered and flash-frozen at the end of the experiment.

[7] = tested on: MB cells; assay: Cell viability, propidium iodine incorporation, MB cells; format: cell-based, human; details: 48 h, 5 µM
Description: (§3) Cell viability assays were conducted using a propidium iodine incorporation technique with an ADAM-sHIT automated cell counter (NanoEnTek, Gyeonggi-do, Korea) according to the manufacturer’s protocol.

[8] = LC/MS measurement of axitinib in rat cerebellum; format: in vivo; details: after 28 days of 50 mg/kg/day oral gavage
Text: as §2

[9] = tested on: subcutaneous DAOY tumors; details: oral, thrice a week; axitinib 50 mg/kg, etoposide 30 mg/kg, combination 25 + 15 mg/kg
Description: For subcutaneous xenograft experiments, tumor cells expressing the luciferase (350,000 HDMB-Luc cells and 1.10^6 DAOY-Luc cells) were resuspended in 200 µL of 5 µg/mL Matrigel (Corning Inc., Corning, NY, USA) and injected subcutaneously in the flank of 5-week-old Rj:NMRI-Foxn1 nude (nu/nu) female mice (Janvier Labs, Le Genest-Saint-Isle, France). Saline solution (NaCl 0.9M; 100 µL) containing 30 mg/mL D-Luciferin (Perkin Elmer, Wellesley, MA, USA) was injected intraperitoneally in the animals and the bioluminescence was quantified using an In Vivo Imaging System (Perkin Elmer, Wellesley, MA, USA) according to the manufacturer’s instructions. Tumor volume (V = L × l2 × 0.52) was determined with a caliper and the endpoint was determined as a tumor volume of 1000 mm^3. […] The mice were sacrificed when the tumor reached 1000 mm^3. […]
The growth rate of the tumors generated with HD-MB03 cells was determined using a linear regression method applied to the growth curves between the sizes of 400 mm^3 up to the endpoint using Prism 5 (Graphpad Software Inc., San Diego, CA, USA).
Tumor samples were recovered from the animals and embedded in the OCT compound according to the manufacturer’s protocol (Thermo Fisher Scientific Inc., Waltham, MA, USA). […] All the images were then quantified with the CellProfiler 3.0 software.

[10] = tested on: C8-D1A astrocytes; assay: Cell viability, propidium iodine incorporation, C8-D1A; format: cell-based, murine; details: 48 h; axitinib, cabozantinib, sunitinib 5 µM, etoposide 1 µM
Description: as §3

[11] = tested on: MB cells (DAOY, HD-MB03, D283, D458, CHLA-01-MED spheroids); assay: Spheroid assay, five MB cell lines; format: cell-based, human; details: 5 µM, continuous treatment
Description: Two thousand cells were seeded in ultralow-adhesion 96-well plates (Corning Inc., Corning, NY, USA). […] Pictures were taken with an AMG Evos microscope 40× objective (Thermo Fisher Scientific Inc, Waltham, MA, USA) and the spheroid areas were measured using the ImageJ software (NIH, Bethesda, MD, USA).

Compound: CNC(=O)c1ccccc1Sc1ccc2c(/C=C/c3ccccn3)n[nH]c2c1 [Axitinib, axitinib]
- proliferation (CPD) of HDF normal cells after removal of the drug [1]: able to proliferate again
- permeability of the barrier formed by HUVEC [2]: permeabilized the barrier
- long-term proliferation (CPD) of HD-MB03 cells [3]: strongly impaired their proliferation
- number of CD31-positive and αSMA-positive double-stained structures (vessels covered with pericytes) ([4]; metronomic oral treatment): decreased the number
- intracranial tumor growth (BLI) ([4]; oral, five times a week, axitinib 50 mg/kg, combination 25 + 15 mg/kg): reduced tumor growth
- survival of mice with intracranial tumors ([4]; oral, five times a week, axitinib 50 mg/kg, etoposide 30 mg/kg, combination 25 + 15 mg/kg): increased survival of the animals
- maximum tolerated and recommended dose in children [5]: 2.4 mg/m^2
- general behavior and growth rate of juvenile rats [6]: no effect on the general behavior and growth rate
- viability of MB cells [7]: decreased the viability of most MB cells
- axitinib content of cerebella (LC/MS) [8]: present in the cerebellum
- tumor growth (lognormal mathematical modelling) [9]: did not impair tumor growth
- viability of C8-D1A normal cells [10]: no effect on the viability
- 3D growth of MB cell spheroids [11]: abolished 3D growth
